Several values for one entry are separate records, joined by “and”; a condition that tells them apart may be missing. Equal values may be shown once.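 Briefly, cells in 96-well plates were exposed to five compound concentrations for 48 h, and endpoints were estimated by linear interpolation. GI50 = concentration required for 50% inhibition of growth.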 Activity calls are given as the source filed them. No stated cut-off is given here; in the data, active = GI50 up to about 1.1 µM and inactive = higher.
Tests used:
Test in all cases: NCI-60 cell line screen, 48 h
ACHN = system: ACHN
COLO 205 = system: COLO 205
EKVX = system: EKVX
HCC 2998 = system: HCC 2998
HOP-18 = system: HOP-18
KM12 = system: KM12
OVCAR-3 = system: OVCAR-3
RXF 393 = system: RXF 393
SK-MEL-28 = system: SK-MEL-28
SK-MEL-2 = system: SK-MEL-2
SK-OV-3 = system: SK-OV-3
SNB-75 = system: SNB-75
TK-10 = system: TK-10
CCRF-CEM = system: CCRF-CEM
DMS-114 = system: DMS-114
DMS-273 = system: DMS-273
M14 = system: M14
NCI-H23 = system: NCI-H23
OVCAR-5 = system: OVCAR-5
SNB-19 = system: SNB-19
SW-620 = system: SW-620
U-251 = system: U-251
XF498 = system: XF498
786-0 = system: 786-0
A498 = system: A498
A549 = system: A549
DLD-1 = system: DLD-1
HCT-116 = system: HCT-116
HCT-15 = system: HCT-15
HL-60 = system: HL-60
HOP-62 = system: HOP-62
HOP-92 = system: HOP-92
HT-29 = system: HT-29
IGROV-1 = system: IGROV-1
K562 = system: K562
KM-20L2 = system: KM-20L2
LXFL 529 = system: LXFL 529
M19-MEL = system: M19-MEL
Malme-3M = system: Malme-3M
NCI-H226 = system: NCI-H226
NCI-H460 = system: NCI-H460
OVCAR-8 = system: OVCAR-8
RPMI-8226 = system: RPMI-8226
SN12C = system: SN12C
SNB-78 = system: SNB-78
UACC-257 = system: UACC-257
UACC-62 = system: UACC-62
UO-31 = system: UO-31
BT-549 = system: BT-549
DU-145 = system: DU-145
Hs-578T = system: Hs-578T
LOX IMVI = system: LOX IMVI
MCF7 = system: MCF7
MDA-MB-231 = system: MDA-MB-231
MDA-MB-435 = system: MDA-MB-435
MDA-N = system: MDA-N
MOLT-4 = system: MOLT-4
NCI/ADR-RES = system: NCI/ADR-RES
PC-3 = system: PC-3
SF-295 = system: SF-295
SF-539 = system: SF-539
SR = system: SR
T47D = system: T47D

COc1cc(C2c3cc4c(cc3[C@@H](NCCCN3CCCC3=O)C3COC(=O)[C@H]23)OCO4)cc(OC)c1O (stereo not given in full)
GI50 (ACHN): 3.41 µM (inactive)
GI50 (COLO 205): 7.76 µM (inactive)
GI50 (EKVX): > 100 µM (inactive)
GI50 (HCC 2998): 19.1 µM (inactive)
GI50 (HOP-18): 28.7 µM (inactive)
GI50 (KM12): 21 µM (inactive)
GI50 (OVCAR-3): 45.9 µM (inactive)
GI50 (RXF 393): 6.84 µM (inactive)
GI50 (SK-MEL-28): 15.4 µM (inactive)
GI50 (SK-MEL-2): 36.2 µM (inactive)
GI50 (SK-OV-3): 4.29 µM (inactive)
GI50 (SNB-75): 1.67 µM (inactive)
GI50 (TK-10): 30.3 µM (inactive)

CCCCCCCCCCCCCB(O)O
GI50 (CCRF-CEM): > 100 µM (inactive)
GI50 (DMS-114): > 100 µM (inactive)
GI50 (DMS-273): > 100 µM (inactive)
GI50 (M14): > 100 µM (inactive)
GI50 (NCI-H23): > 100 µM (inactive)
GI50 (OVCAR-3): > 100 µM (inactive)
GI50 (OVCAR-5): > 100 µM (inactive)
GI50 (SK-MEL-2): > 100 µM (inactive)
GI50 (SNB-19): > 100 µM (inactive)
GI50 (SW-620): > 100 µM (inactive)
GI50 (U-251): > 100 µM (inactive)
GI50 (XF498): > 100 µM (inactive)

COc1cccc(C2CC(C)=Nc3c(ccc4c3C(=O)c3ccccc3C4=O)N2)c1O (stereo not given)
GI50 (786-0): > 100 µM (inactive)
GI50 (A498): > 100 µM (inactive)
GI50 (A549): > 100 µM (inactive)
GI50 (ACHN): 9.46 µM (inactive)
GI50 (COLO 205): > 100 µM (inactive)
GI50 (DLD-1): 15 µM (inactive)
GI50 (DMS-114): > 100 µM (inactive)
GI50 (EKVX): > 100 µM (inactive)
GI50 (HCC 2998): > 100 µM (inactive)
GI50 (HCT-116): > 100 µM (inactive)
GI50 (HCT-15): 26.9 µM
GI50 (HL-60): 5.41 µM (inactive)
GI50 (HOP-62): 3.24 µM (inactive)
GI50 (HOP-92): > 100 µM (inactive)
GI50 (HT-29): > 100 µM (inactive)
GI50 (IGROV-1): > 100 µM (inactive)
GI50 (K562): > 100 µM (inactive)
GI50 (KM-20L2): > 100 µM (inactive)
GI50 (KM12): 3.59 µM (inactive)
GI50 (LXFL 529): > 100 µM (inactive)
GI50 (M14): 9.2 µM (inactive)
GI50 (M19-MEL): 9.62 µM (inactive)
GI50 (Malme-3M): > 100 µM (inactive)
GI50 (NCI-H226): 33.6 µM (inactive)
GI50 (NCI-H23): > 100 µM (inactive)
GI50 (NCI-H460): 7.52 µM (inactive)
GI50 (OVCAR-3): 9.71 µM (inactive)
GI50 (OVCAR-5): > 100 µM (inactive)
GI50 (OVCAR-8): 4.94 µM (inactive)
GI50 (RPMI-8226): 79.3 µM (inactive)
GI50 (SN12C): > 100 µM (inactive)
GI50 (SNB-19): > 100 µM (inactive)
GI50 (SNB-75): > 100 µM (inactive)
GI50 (SNB-78): > 100 µM (inactive)
GI50 (SW-620): 20.5 µM (inactive)
GI50 (U-251): 3.78 µM (inactive)
GI50 (UACC-257): 3 µM (inactive)
GI50 (UACC-62): > 100 µM (inactive)
GI50 (UO-31): 33 µM (inactive)

COc1cc2c(cc1OC)[C@@H](Nc1ccc(C#N)cc1)C1COC(=O)[C@@H]1C2c1cc(OC)c(O)c(OC)c1 (stereo not given in full)
GI50 (786-0): 0.196 µM (active)
GI50 (A498): 0.042 µM (active)
GI50 (ACHN): 0.0279 µM (active)
GI50 (BT-549): 1.41 µM (inactive)
GI50 (COLO 205): 2.13 µM (inactive)
GI50 (DLD-1): 2.37 µM (inactive)
GI50 (DMS-273): 0.0403 µM (active)
GI50 (DU-145): 0.149 µM (active)
GI50 (HL-60): < 0.00975 µM (active)
GI50 (HOP-18): 0.805 µM (active)
GI50 (HT-29): 1.87 µM (inactive)
GI50 (Hs-578T): 1.55 µM (inactive)
GI50 (KM-20L2): 3.12 µM (inactive)
GI50 (KM12): 1.59 µM (inactive)
GI50 (LOX IMVI): 0.214 µM (active)
GI50 (LXFL 529): 22.4 µM (inactive)
GI50 (M19-MEL): 2.39 µM (inactive)
GI50 (MCF7): 0.181 µM (active)
GI50 (MDA-MB-231): 2.36 µM (inactive)
GI50 (MDA-MB-435): 6.73 µM (inactive)
GI50 (MDA-N): 3.18 µM (inactive)
GI50 (MOLT-4): < 0.00975 µM (active)
GI50 (NCI-H226): 0.01 µM (active)
GI50 (NCI-H460): < 0.00975 µM (active)
GI50 (NCI/ADR-RES): 40.2 µM (inactive)
GI50 (PC-3): > 100 µM (inactive)
GI50 (RXF 393): 2.09 µM (inactive)
GI50 (SF-295): 0.108 µM (active)
GI50 (SF-539): 0.158 µM (active)
GI50 (SN12C): 0.192 µM (active)
GI50 (SNB-19): 0.344 µM (active)
GI50 (SNB-75): 0.328 µM (active)
GI50 (SNB-78): 5.79 µM (inactive)
GI50 (SR): < 0.00975 µM (active)
GI50 (SW-620): 0.948 µM (active)
GI50 (T47D): 0.167 µM (active)
GI50 (UACC-257): 28.3 µM (inactive)
GI50 (UO-31): 1.75 µM (inactive)

CC(=O)c1c(O)c(C)c(O)c2c1OC1=CC(=O)C(C(C)=O)C(=O)C12C (stereo not given)
GI50 (Malme-3M): 13.1 µM (inactive) and 23.7 µM (inactive)
GI50 (SK-MEL-28): 14.3 µM (inactive) and 17.1 µM (inactive)
GI50 (XF498): 555 nM (active) and 422 nM (active)
